Measured values from patent publication US12493040B2, “Cancer detection method using sense of smell of nematode” (HIROTSU BIO SCIENCE INC., priority 2013, dated 2025).

Test system: RNAi-treated eri-1 (mg366) nematodes
Assay: RNAi screening of olfactory receptor genes: chemotaxis assay of RNAi-treated nematodes to odorants
Type: in vivo, Caenorhabditis elegans
Settings: low concentration of attractant
How it was run: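 eri-1 (mg366) worms knocked down by feeding RNAi (Ahringer library) on IPTG/ampicillin NGM plates with E. coli for 4 days, then tested for chemotaxis, 30–50 worms per assay. Odorants at 1 μl of 10^−3 or 10^−4 dilution, or 1 and 5 μl undiluted. Hits scored by z score, thresholds ±1.96 (P<0.05) or ±0.96.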

c1cnccn1 [pyrazine]
chemotaxis index (Control nematodes): 0.49 ± 0.019
chemotaxis index (srh-10 RNAi-treated nematodes): 0.67
chemotaxis index (srh-11 RNAi-treated nematodes): 0.87
chemotaxis index (srh-15 RNAi-treated nematodes): 0.78
chemotaxis index (srh-16 RNAi-treated nematodes): 0.82
chemotaxis index (srh-18 RNAi-treated nematodes): 0.73
chemotaxis index (srh-19 RNAi-treated nematodes): 0.33
chemotaxis index (srh-22 RNAi-treated nematodes): 0.82
chemotaxis index (srh-23 RNAi-treated nematodes): 0.43
chemotaxis index (srh-24 RNAi-treated nematodes): 0.57
chemotaxis index (srh-25 RNAi-treated nematodes): 0.64
chemotaxis index (srh-27 RNAi-treated nematodes): 0.32
chemotaxis index (srh-28 RNAi-treated nematodes): 0.23
chemotaxis index (srh-36 RNAi-treated nematodes): 0.53
chemotaxis index (srh-37 RNAi-treated nematodes): 0.88
chemotaxis index (srh-39 RNAi-treated nematodes): 0.11
chemotaxis index (srh-40 RNAi-treated nematodes): 0.51
chemotaxis index (srh-41 RNAi-treated nematodes): 0.71
chemotaxis index (srh-44 RNAi-treated nematodes): 0.44
chemotaxis index (srh-45 RNAi-treated nematodes): 0.74
chemotaxis index (srh-46 RNAi-treated nematodes): −0.04
chemotaxis index (srh-48 RNAi-treated nematodes): 0.15
chemotaxis index (srh-49 RNAi-treated nematodes): 0.52
chemotaxis index (srh-50 RNAi-treated nematodes): 0.83
chemotaxis index (srh-51 RNAi-treated nematodes): 0.31
chemotaxis index (srh-52 RNAi-treated nematodes): 0.55
chemotaxis index (srh-55 RNAi-treated nematodes): 0.56
chemotaxis index (srh-59 RNAi-treated nematodes): 0.04
chemotaxis index (srh-60 RNAi-treated nematodes): 0.52
chemotaxis index (srh-61 RNAi-treated nematodes): 0.27
chemotaxis index (srh-67 RNAi-treated nematodes): 0.39
chemotaxis index (srh-68 RNAi-treated nematodes): 0.36
chemotaxis index (srh-69 RNAi-treated nematodes): 0.35
chemotaxis index (srh-70 RNAi-treated nematodes): 0.41
chemotaxis index (srh-71 RNAi-treated nematodes): 0.56
chemotaxis index (srh-72 RNAi-treated nematodes): 0.50
chemotaxis index (srh-74 RNAi-treated nematodes): 0.26
chemotaxis index (srh-75 RNAi-treated nematodes): 0.71
chemotaxis index (srh-77 RNAi-treated nematodes): 0.44
chemotaxis index (srh-79 RNAi-treated nematodes): 0.12
chemotaxis index (srh-80 RNAi-treated nematodes): 0.40
chemotaxis index (srh-82 RNAi-treated nematodes): 0.31
chemotaxis index (srh-83 RNAi-treated nematodes): 0.38
chemotaxis index (srh-97 RNAi-treated nematodes): 0.66
chemotaxis index (srh-99 RNAi-treated nematodes): 0.29
chemotaxis index (srh-100 RNAi-treated nematodes): 0.30
chemotaxis index (srh-104 RNAi-treated nematodes): −0.18
chemotaxis index (srh-105 RNAi-treated nematodes): 0.32
chemotaxis index (srh-109 RNAi-treated nematodes): 0.32
chemotaxis index (srh-111 RNAi-treated nematodes): −0.23
chemotaxis index (srh-113 RNAi-treated nematodes): 0.35
chemotaxis index (srh-115 RNAi-treated nematodes): 0.19
chemotaxis index (srh-116 RNAi-treated nematodes): 0.35
chemotaxis index (srh-118 RNAi-treated nematodes): 0.36
chemotaxis index (srh-119 RNAi-treated nematodes): 0.37
chemotaxis index (srh-120 RNAi-treated nematodes): 0.54
chemotaxis index (srh-122 RNAi-treated nematodes): 0.47
chemotaxis index (srh-123 RNAi-treated nematodes): 0.63
chemotaxis index (srh-125 RNAi-treated nematodes): 0.39
chemotaxis index (srh-128 RNAi-treated nematodes): 0.54
chemotaxis index (srh-129 RNAi-treated nematodes): 0.71
chemotaxis index (srh-130 RNAi-treated nematodes): 0.22
chemotaxis index (srh-214 RNAi-treated nematodes): 0.72
chemotaxis index (srh-216 RNAi-treated nematodes): 0.60
chemotaxis index (srh-217 RNAi-treated nematodes): 0.94
chemotaxis index (srh-220 RNAi-treated nematodes): 0.40
chemotaxis index (srh-222 RNAi-treated nematodes): 0.65
chemotaxis index (srh-223 RNAi-treated nematodes): 0.43
chemotaxis index (srh-227 RNAi-treated nematodes): 0.35
chemotaxis index (srh-229 RNAi-treated nematodes): 0.09
chemotaxis index (srh-233 RNAi-treated nematodes): 0.49
chemotaxis index (srh-235 RNAi-treated nematodes): 0.73
chemotaxis index (srh-236 RNAi-treated nematodes): 0.44
chemotaxis index (srh-239 RNAi-treated nematodes): 0.54
chemotaxis index (srh-241 RNAi-treated nematodes): 0.78
chemotaxis index (srh-243 RNAi-treated nematodes): 0.48
chemotaxis index (srh-244 RNAi-treated nematodes): 0.34
chemotaxis index (srh-247 RNAi-treated nematodes): 0.49
chemotaxis index (srh-250 RNAi-treated nematodes): 0.55
chemotaxis index (srh-251 RNAi-treated nematodes): 0.32
chemotaxis index (srh-252 RNAi-treated nematodes): 0.87
chemotaxis index (srh-258 RNAi-treated nematodes): 0.44
chemotaxis index (srh-261 RNAi-treated nematodes): 0.57
chemotaxis index (srh-264 RNAi-treated nematodes): 0.85
chemotaxis index (srh-266 RNAi-treated nematodes): −0.14
chemotaxis index (srh-274 RNAi-treated nematodes): 0.12
chemotaxis index (srh-275 RNAi-treated nematodes): 0.42
chemotaxis index (srh-276 RNAi-treated nematodes): 0.44
chemotaxis index (srh-277 RNAi-treated nematodes): 0.81
chemotaxis index (srh-279 RNAi-treated nematodes): 0.37
chemotaxis index (srh-281 RNAi-treated nematodes): 0.01
chemotaxis index (srh-282 RNAi-treated nematodes): 0.55
chemotaxis index (srh-283 RNAi-treated nematodes): 0.26
chemotaxis index (srh-284 RNAi-treated nematodes): 0.49
chemotaxis index (srh-291 RNAi-treated nematodes): 0.82
chemotaxis index (srh-292 RNAi-treated nematodes): 0.43
chemotaxis index (srh-293 RNAi-treated nematodes): 0.59
chemotaxis index (srh-297 RNAi-treated nematodes): 0.29
chemotaxis index (srh-298 RNAi-treated nematodes): 0.33
chemotaxis index (srh-308 RNAi-treated nematodes): 0.15
